Test results published in PMC8303988, “Cholate Disrupts Regulatory Functions of Cytochrome c Oxidase” (Cells, 2021).

System: T1, cholate-CytOx; isolated cytochrome c oxidase from bovine heart
T1 construct: gene MT-CO1; with Cytochrome c oxidase subunit 1; Cytochrome c oxidase subunit 2; Cytochrome c oxidase subunit 3; Cytochrome c oxidase subunit 5A, mitochondrial; Cytochrome c oxidase subunit 5B, mitochondrial; Cytochrome c oxidase subunit 6A2, mitochondrial; Cytochrome c oxidase subunit 6B1; Cytochrome c oxidase subunit 6C; Cytochrome c oxidase subunit 7A1, mitochondrial; Cytochrome c oxidase subunit 7B, mitochondrial; Cytochrome c oxidase subunit 7C, mitochondrial; Cytochrome c oxidase subunit 8B, mitochondrial
Test: UV/VIS absorption spectroscopy, displacement of bound cholate by ADP
Format: binding, Bos taurus
Conditions: 0 °C, pH 7.4; cholate bound during purification; nucleotide sites

C[C@H](CCC(=O)O)[C@H]1CC[C@H]2[C@@H]3[C@H](O)C[C@@H]4C[C@H](O)CC[C@]4(C)[C@H]3C[C@H](O)[C@]12C [cholate]
UV/VIS absorption spectroscopy, displacement of bound cholate by ADP: exchange of cholate by ADP is a very slow process with a half-time of about
